Test results as given in patent US4575560A, “Insecticidal diaminoguanidine hydrazone compounds” (American Cyanamid Company, priority 1985, dated 1986).
In brackets after ≈: the same amount, converted by molar mass.

What was measured:
[1] = tested on: Southern Armyworm; test: Southern armyworm test, third-instar larvae on treated Sieva lima bean leaves; type: in vivo, Spodoptera eridania (Cramer); settings: for Mortality Rating Southern Armyworm: third-instar larvae
Protocol: Test formulations and procedures used for evaluation are as follows:
A. 100 mg of the test material is weighed, placed in a funnel over a 113 g narrow-mouth bottle, rinsed into the bottle with a 35 mL scoop of acetone, followed by a 35 mL scoop of water and another 35 mL scoop of acetone to yield 1000 ppm in 65% acetone. If the material is not soluble, it is broken up with a glass rod and used as a suspension.
B. This stock solution ("A") is used to make 300 ppm solutions or suspensions by pipetting 30 mL of "A" into a bottle containing 70 mL of 50% acetone to yield 300 ppm. Further dilutions in 50% acetone are made as required.
C. Tests requiring 10 ppm acetone solutions: 1 mL of "A" is pipetted into 99 mL of acetone to yield 10 ppm. Additional dilutions are made using 50% acetone as required.
Southern Armyworm--Spodoptera eridania (Cramer)
A Sieva lima bean plant with just the primary leaves expanded to 1.91 cm is dipped for three seconds with agitation in the "A" solution of 1000 ppm and set in the hood to dry. Following this, one leaf is placed in a 9 cm petri dish which has a moist filter paper in the bottom and 10 third-instar armyworm larvae about 1 cm long. This dish is covered and held at 80° F., and 50% r.h. After two days, mortality counts and estimates of the amount of feeding are made. Compounds showing partial kill and/or inhibition of feeding are held for an extra day for further observations.
All compounds showing activity as defined above are retested, using the second leaf on the bean plant, after an interval of seven days from original treatment, as an assay of residual activity.

[2] = tested on: Tobacco Budworm 3rd Instar; test: Tobacco budworm secondary test, third-instar larvae on treated cotton cotyledons; type: in vivo, Heliothis virescens (Fabricus)
Protocol: Tobacco Budworm--Heliothis virescens (Fabricus)
Three cotton plants with just expanded cotyledons are dipped in 1000 ppm solution and placed in the hood to dry. When dry, each cotyledon is cut in half, and 10 are each placed in a 28 g plastic medicine cup containing a 1.25 cm dental wick saturated with water, and one third-instar budworm larva is added. The cup is capped and held for three days at 80° F., 50% relative humidity, after which mortality counts are made.

Structure (SMILES)	Mortality Rating Southern Armyworm ([1]; 100 ppm)	Mortality Rating Southern Armyworm ([1]; 1000 ppm)	Mortality Rating Tobacco Budworm 3rd Instar ([2]; 1000 ppm)	Mortality Rating Southern Armyworm ([1]; 10 ppm)	Mortality Rating Tobacco Budworm 3rd Instar ([2]; 100 ppm)	reduced feeding (R) Tobacco Budworm 3rd Instar ([2]; 1000 ppm)	LC50 ([1]; Spodoptera eridania, read-out: LC50 Southern Armyworm)	Mortality Rating Tobacco Budworm 3rd Instar ([2]; 10 ppm)	reduced feeding (R) Tobacco Budworm 3rd Instar ([2]; 100 ppm)
CCCOC(=O)N(N=Cc1ccc(SC(F)F)cc1)C(=N)NN=Cc1ccc(OC(F)F)cc1 [HCF2 S / HCF2 O / -n-C3 H7]	0 (No effect)	9 (100%)	0 (No effect)	–	–	–	–	–	–
CC(C)OC(=O)N(N=Cc1ccc2c(c1)OC(F)C(F)(F)O2)C(=N)NN=Cc1ccc2c(c1)OC(F)C(F)(F)O2 (stereo not shown) [drawing 52 / drawing 53 / -i-C3 H7]	5 (56-65%)	8 (86-99%)	0 (No effect)	0 (No effect)	0 (No effect)	R	–	–	–
CCNC(=O)N(N=Cc1ccc(OC(F)(F)C(F)F)cc1)C(=N)NN=Cc1ccc(OC(F)(F)C(F)F)cc1 [HCF2 CF2 O / HCF2 CF2 O / C2 H5 / H]	9 (100%)	9 (100%)	4 (46-55%)	0 (No effect)	–	–	34 µg/mL (≈ 59.8 µM)	–	–
CC(C)OC(=O)N(N=Cc1ccc(OC(F)(F)C(F)Cl)cc1)C(=N)NN=Cc1ccc(OC(F)(F)C(F)Cl)cc1 (stereo not shown) [drawing 50 / drawing 51 / -i-C3 H7]	9 (100%)	9 (100%)	0 (No effect)	0 (No effect)	–	R	–	–	–
N=C(NN=Cc1ccc(OCC(F)(F)F)cc1)NN=Cc1ccc(OCC(F)(F)F)cc1 [CF3 CH2 O / B]	0 (No effect)	4 (46-55%)	0 (No effect)	–	0 (No effect)	R	–	–	–
C=CCOC(=O)N(N=Cc1ccc(C(F)(F)F)cc1)C(=N)NN=Cc1ccc(C(F)(F)F)cc1 [CF3 / CF3 / CH2CHCH2]	9 (100%)	9 (100%)	0 (No effect)	0 (No effect)	0 (No effect)	R	–	–	–
N=C(NN=Cc1ccc(Cl)cc1)NN=Cc1ccc(C(F)(F)F)cc1 [CF3 / Cl / B]	9 (100%)	9 (100%)	4 (46-55%)	–	0 (No effect)	R	–	0 (No effect)	R
N=C(NN=Cc1ccc(OC(F)(F)F)cc1)NN=Cc1ccc(OC(F)(F)F)cc1 [CF3 O / B]	9 (100%)	9 (100%)	7 (76-85%)	4 (46-55%)	–	–	–	–	–
CCN(CC)C(=O)N(N=Cc1ccc(OC(F)(F)F)cc1)C(=N)NN=Cc1ccc(OC(F)(F)F)cc1 [CF3 O / CF3 O / C2 H5 / C2 H5]	9 (100%)	9 (100%)	8 (86-99%)	0 (No effect)	–	–	–	–	–
N=C(NN=Cc1ccc(SC(F)F)cc1)NN=Cc1ccc(SC(F)F)cc1 [HCF2 S / B]	9 (100%)	8 (86-99%)	0 (No effect)	–	0 (No effect)	R	–	0 (No effect)	R
CCC(C)OC(=O)N(N=Cc1ccc(OC(F)(F)F)cc1)C(=N)NN=Cc1ccc(OC(F)(F)F)cc1 (stereo not shown) [CF3 O / CF3 O / drawing 55]	9 (100%)	9 (100%)	8 (86-99%)	0 (No effect)	0 (No effect)	–	–	–	R
CC(C)(OC(=O)N(N=Cc1ccc(C(F)(F)F)cc1)C(=N)NN=Cc1ccc(C(F)(F)F)cc1)C(Cl)(Cl)Cl [CF3 / CF3 / Cl3 CC(CH3)2]	9 (100%)	9 (100%)	9 (100%)	0 (No effect)	0 (No effect)	–	–	0 (No effect)	R
N=C(NN=Cc1ccc(OC(F)(F)C(F)F)cc1)N(N=Cc1ccc(OC(F)(F)C(F)F)cc1)C(=O)N1CCCC1 [HCF2 CF2 O / HCF2 CF2 O / (CH2)4]	9 (100%)	9 (100%)	3 (36-45%)	–	0 (No effect)	–	–	–	–
N=C(NN=Cc1ccc(C(F)(F)F)cc1)N(N=Cc1ccc(C(F)(F)F)cc1)C(=O)OCC(Cl)(Cl)Cl [CF3 / CF3 / Cl3 CCH2]	9 (100%)	9 (100%)	8 (86-99%)	8 (86-99%)	0 (No effect)	–	–	0 (No effect)	R
N=C(NN=Cc1ccc(OCC(F)(F)F)cc1)NN=Cc1ccc(OCC(F)(F)F)cc1 [CF3 CH2 / S]	8 (86-99%)	9 (100%)	0 (No effect)	6 (66-75%)	0 (No effect)	R	–	–	–
CC(C)OC(=O)N(N=Cc1ccc(OC(F)(F)C(Cl)Cl)cc1)C(=N)NN=Cc1ccc(OC(F)(F)C(Cl)Cl)cc1 [HCCL2 CF2 O / HCCl2 CF2 O / -i-C3 H7]	0 (No effect)	7 (76-85%)	0 (No effect)	–	0 (No effect)	R	–	–	R
N=C(NN=Cc1ccc(OC(F)(F)C(F)Cl)cc1)N(N=Cc1ccc(OC(F)(F)C(F)Cl)cc1)C(=O)OCCCl (stereo not shown) [drawing 57 / drawing 58 / ClCH2 CH2]	9 (100%)	9 (100%)	0 (No effect)	–	–	R	–	–	–
N=C(NN=Cc1ccc(OC(F)(F)C(F)Cl)cc1)NN=Cc1ccc(OC(F)(F)C(F)Cl)cc1 (stereo not shown) [drawing 43 / B]	9 (100%)	9 (100%)	9 (100%)	–	0 (No effect)	–	–	0 (No effect)	–
N=C(NN=Cc1ccc(SC(F)F)cc1)NN=Cc1ccc(SC(F)F)cc1 [HCF2 S / S]	9 (100%)	9 (100%)	0 (No effect)	–	–	R	–	–	–
N=C(NN=Cc1ccc(OC(F)(F)C(Cl)Cl)cc1)NN=Cc1ccc(OC(F)(F)C(Cl)Cl)cc1 [HCCl2 CF2 O / B]	0 (No effect)	9 (100%)	4 (46-55%)	0 (No effect)	–	R	–	–	–
CC(C)OC(=O)N(N=Cc1ccc(OC(F)(F)F)cc1)C(=N)NN=Cc1ccc(OC(F)(F)F)cc1 [CF3 O / CF3 O / -i-C3 H7]	9 (100%)	9 (100%)	–	7 (76-85%)	5 (56-65%)	–	–	–	R
CCOC(=O)N(N=Cc1ccc(SC(F)F)cc1)C(=N)NN=Cc1ccc(SC(F)F)cc1 [HCF2 S / HCF2 s / C2 H5]	0 (No effect)	9 (100%)	0 (No effect)	–	–	R	–	–	–
CCCCOC(=O)N(N=Cc1ccc(C(F)(F)F)cc1)C(=N)NN=Cc1ccc(C(F)(F)F)cc1 [CF3 / CF3 / -n-C4 H9]	0 (No effect)	9 (100%)	0 (No effect)	–	–	–	–	–	–
CCOC(=O)N(N=Cc1ccc(OC(F)(F)F)cc1)C(=N)NN=Cc1ccc(OC(F)(F)F)cc1 [CF3 O / CF3 O / C2 H5]	9 (100%)	9 (100%)	7 (76-85%)	6 (66-75%)	2 (26-35%)	R	–	–	–
